From patent US10160732B2, “MIF inhibitors” (MIFCARE, priority 2014, dated 2018)

Molecular target: T1, recombinant human MIF (Homo sapiens, UniProt P14174)
T1 construct: purchased RayBiotech
T1 sequence (P14174 2-115 limits assumed): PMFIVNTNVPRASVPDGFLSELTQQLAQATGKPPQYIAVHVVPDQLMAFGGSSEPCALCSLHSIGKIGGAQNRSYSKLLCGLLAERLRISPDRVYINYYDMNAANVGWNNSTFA
Test: MIF tautomerase assay using 4-hydroxyphenylpyruvate (4-HPP)
Format: biochemical
Conditions: compounds tested at 1 nM; 300 ng/mL rhMIF; 4-HPP substrate; compared to positive control with recombinant human MIF alone
Method: Tautomerase activity was assessed using 4-hydroxyphenylpyruvate (4-HPP) as substrate. 4-HPP was dissolved in 50 mM ammonium acetate at pH 6.0, allowed to equilibrate to room temperature and stored at −20° C. 300 ng/mL of recombinant human MIF (rhMIF; RayBiotech, Le Perray en Yvelines, France) and tested compounds were pre-incubated at room temperature for 15 min. Tautomerase activity was assessed at room temperature, by adding 4-HHP to a 96-well plate containing 0.435 M boric acid at pH 6.6 and rhMIF with or without (positive control) tested compounds (1 nM), and by measuring the increase in absorbance at 320 nm over 10-360 s using the 2103 EnVision™ Multilabel Plate Readers (PerkinElmer, Villebon-sur-Yvette, France). Compounds were tested at 1 nM. The assay was replicated 3 times independently.
Compounds 38, 39 and 41 of the present invention were tested and compared to their respective “C═O” isosteres 38-O, 39-O and 41-O. Results are also compared to prototypical MIF inhibitor ISO-1.
Results are presented in table 2 below and represent the percentage of MIF tautomerase activity inhibition as compared to the positive control with recombinant human MIF alone.

inhibition at 0.001 µM | Compound
12% | Cc1ccc2oc(=O)n(Cc3ccccc3)c2c1 [Compound 39-O]
31% | COc1ccccc1Cn1c(=O)oc2ccc(C)cc21 [Compound 41-O]
